Experimental findings from US5700819A, “2-substituted benzothiazole derivatives and prophylactic and therapeutic agents for the treatment of diabetic complications” (Grelan Pharmaceutical Co., Ltd., priority 1994, dated 1997) are described below.

One data set has as its target T1, Aldose reductase (Sus scrofa, UniProt P80276).
T1 construct: Aldose reductase samples were prepared from porcine lens; from tissue; host or cells: porcine lens
In words: Aldose Reductase Inhibition. In kind it is biochemical. Particulars: porcine lens aldose reductase; DL-glyceraldehyde 3 mM, NADPH 0.1 mM, pH 6.2, 37° C. On the procedure: Aldose reductase samples were prepared from porcine lens according the method by S. Hayman et al., (Journal of Biological Chemistry, 240, p. 877-882 (1965)). In brief, lens of porcine eyes were frozen (-80° C.) until employed. These lenses were homogenized with distilled water and then centrifuged at 10,000×g for 15 minutes. The supernatant was fractionated with 0 to 40% ammonium sulfate and centrifuged at 10,000×g for 10 minutes. The resultant supernatant was dialyzed overnight against 0.05M sodium chloride. The dialyzed solution was used as an aldose reductase sample. (Assay of Enzymatic Activity) Aldose reductase activity was assayed according to the aforementioned method by S. Hayman et al. In brief, to 200 μl of 40 mM phosphate buffer (pH 6.2) containing lithium sulfate, 0.4M (final concentration); NADPH (reduced nicotinamide adenine dinucleotide phosphate), 0.1 mM (final concentration); and DL-glyceraldehyde as a substrate, 3 mM (final concentration) was added 25 μl of the aldose reductase solution obtained by the aforementioned method and 25 μl of 1% DMSO solutions containing a sample inhibitor compound with different concentrations. The mixtures were incubated at 37° C. for 2 minutes for reaction and changes in the absorbance at 340 nm were read using an auto-analyzer (Hitachi Corporation, Model 7070, Japan). The change in the absorbance of a mixed solution including 1% DMSO instead of sample compounds was expresses as 100%. […] IC50 (M) means the concentration of the compounds, required for 50% inhibition of aldose reductase activity.

The test system of data set [1] is sorbitol accumulation in tissues (sciatic nerve, lens) of experimental diabetic rats. In words: Inhibitory Effect on Sorbitol Accumulation in the Tissues of Experimental Diabetic Rats (Prophylactic effect). In kind it is in vivo, Sprague-Dawley rats. Particulars: control = 100%, ** P < 0.01 (Tukey); for Sorbitol Accumulation, Nerve: sciatic nerve. On the procedure:
2) Inhibitory Effect on Sorbitol Accumulation in the Tissues of Experimental Diabetic Rats (Prophylactic effect)
Sprague-Dawley rats (male, 6-week-old, 5-6 rats/group), fasted for 18 hours, were made diabetic by a single intravenous (tail vein) injection of 60 mg/kg body weight of streptozotocin (Sigma). Four, eight and twenty four hours after the injection of streptozotocin, respectively, a sample compound suspended in 0.5% carboxymethyl cellulose was administered orally to the rats at a dose of 10 or 30 mg/kg. The rats were fed with diet and water ad libitum during the experiment. Three hours after the final administration, the sorbitol contents in the tissues (sciatic nerve, lens) was assayed enzymatically using SDH (sorbitol dehydrogenase) and NAD (β-nicotinamide adenine dinucleotide) according to the method by H. U. Bergmeyer et al. (Methods of Enzymatic Analysis, 3, p. 1323-1330 (1974)). The sorbitol contents in control groups to which 0.5% carboxymethyl cellulose was administered instead of sample compounds is expressed as 100%.

Data set [2] has the same test system. In words: Inhibitory Effect on Sorbitol Accumulation in the Tissues of Experimental Diabetic Rats (Therapeutic Effect). In kind it is in vivo, Sprague-Dawley rats. Particulars: 5 days, from 7 days after streptozotocin, control = 100%, ** P < 0.01 (Tukey); for Sorbitol Accumulation, Nerve: sciatic nerve. As to the method:
4) Inhibitory Effect on Sorbitol Accumulation in the Tissues of Experimental Diabetic Rats (Therapeutic Effect)
Sprague-Dawley rats (male, 6-week-old, 5 to 6 rats/group), fasted for 18 hours, were made diabetic by injecting streptozotocin (Sigma) at a dose of 60 mg/kg body weight into the tail vein thereof. From 7 days after the streptozotocin injection, a sample compound suspended in 0.5% carboxymethyl cellulose was administered orally to the rats at a dose between 1 and 10 mg/kg once daily for 5 consecutive days. The rats were fed with diet and water ad libitum during the experiment. Three hours after the final administration, the sorbitol contents in the tissues (sciatic nerve, lens) was assayed enzymatically using SDH (sorbitol dehydrogenase) and NAD (β-nicotinamide adenine dinucleotide) according to the method by H. U. Bergmeyer et al. (Methods of Enzymatic Analysis, 3, p. 1323-1330 (1974)). The sorbitol contents in control groups to which 0.5% carboxymethyl cellulose was administered instead of sample compounds is expressed as 100%.

A further data set has as its system Normal ICR mice. Description: Safety Study. In kind it is in vivo. Particulars: 1000 mg/kg oral, single dose; observed 7 days; male ICR mice, 5/group. On the procedure:
The safety of the compounds of the present invention was confirmed according to the following experimental procedure.
Normal ICR mice (male, 7-week-old, 5 mice/group), fasted for 18 hours, received orally the compound each of Examples 1-ii), 5-ii), 19-ii), 21, 22-ii) and 23-ii) suspended in 0.5% carboxymethyl cellulose at a dose of 1000 mg/kg. Control groups received only 0.5% carboxymethyl cellulose orally. […] The mice were fed with diet and water ad libitum during the experiment.

The mark [3] stands for this setting: 10 mg/kg oral, 4, 8 and 24 h after streptozotocin.
The mark [4] stands for this setting: 30 mg/kg oral, 4, 8 and 24 h after streptozotocin.

The term IC50 denotes the concentration at which inhibition is half-maximal. High values mean weaker potency in that assay, low ones greater potency in that assay. Turning to `O=C(O)CN(Cc1ccccc1)C(=O)CCc1nc2c(F)c(F)cc(F)c2s1` [Example 5-ii), N-benzyl-N-[3-(4,5,7-trifluorobenzothiazol-2-yl)propionyl]glycine], the IC50 against Aldose reductase is 9.7 nM.

`O=C(O)Cc1cc(Br)cc(Cc2nc3c(F)c(F)cc(F)c3s2)c1` [Example 28-ii), 3-[(4,5,7-trifluorobenzothiazol-2-yl)methyl]-5-bromophenylacetic acid] had an IC50 against Aldose reductase of 9.4 nM. The IC50 values of the last two compounds are within 1.5-fold of each other.

In the case of `O=C(O)Cc1cccc(Cc2nc3c(F)c(F)ccc3s2)c1` [Example 21, 3-[(4,5-difluorobenzothiazol-2-yl)methyl]phenylacetic acid], in data set [1] (setting [3]), the “Sorbitol Accumulation, Lens” value stood at 40% and the “Sorbitol Accumulation, Nerve” value was determined as 0%. The same compound gave an IC50 at Aldose reductase of 6.7 nM.

In the case of `O=C(O)Cc1cccc(Cc2nc3c(F)c(F)cc(F)c3s2)c1` [Example 1-ii), 3-[(4,5,7-trifluorobenzothiazol-2-yl)methyl]phenylacetic acid], in data set [2] (10 mg/kg oral once daily), the “Sorbitol Accumulation, Lens” value is recorded as 68% and the “Sorbitol Accumulation, Nerve” value is given as 2%. Also, in data set [1] (setting [4]), the “Sorbitol Accumulation, Lens” value is reported as 4% and the “Sorbitol Accumulation, Nerve” value is 0%. The compound further showed an IC50 at Aldose reductase of 6.6 nM.

For the compound `Cc1cc(CC(=O)O)cc(Cc2nc3c(F)c(F)cc(F)c3s2)c1` [Example 22-ii), 3-[(4,5,7-trifluorobenzothiazol-2-yl)methyl]-5-methylphenylacetic acid], the “Sorbitol Accumulation, Lens” value is on record as 25% in data set [2] (3 mg/kg oral once daily) and 41% in data set [1] (setting [3]). For the same compound, the “Sorbitol Accumulation, Nerve” value in data set [2] (3 mg/kg oral once daily) is 2%; in data set [1] (setting [3]) it was 0%. Further, the half-inhibitory concentration (IC50) against Aldose reductase turned out to be 9.6 nM.

On to `O=C(O)CN(Cc1ccccc1)C(=S)CCc1nc2c(F)c(F)cc(F)c2s1` [Example 8-ii), N-benzyl-N-[3-(4,5,7-trifluorobenzothiazol-2-yl)-1-thioxopropyl]glycine], for which the IC50 at Aldose reductase was determined as 23 nM. This counts as double-digit nanomolar.

As for `O=C(O)Cc1cc(Cc2nc3c(F)c(F)cc(F)c3s2)cc(C(=O)O)c1` [Example 30-ii), 3-[(4,5,7-trifluorobenzothiazol-2-yl)methyl]-5-carboxymethylbenzoic acid], on Aldose reductase, it took 8.7 nM to reach half-maximal inhibition (IC50).

On Aldose reductase, `O=C(O)Cc1cccc(Cc2nc3c(Cl)c(Cl)ccc3s2)c1` [Example 19-ii), 3-[(4,5-dichlorobenzothiazol-2-yl)methyl]phenylacetic acid] came in with a half-maximal inhibitory concentration (IC50) of 12 nM.

`O=C(O)CCCCSc1nc2c(F)c(F)cc(F)c2s1` [Example 15-ii), 5-(4,5,7-trifluorobenzothiazol-2-ylthio)pentanoic acid] came in with an IC50 at Aldose reductase of 14 nM.

Take `O=C(O)CN(C(=O)CCc1nc2c(F)c(F)cc(F)c2s1)c1ccccc1` [Example 4-ii), N-[3-(4,5,7-trifluorobenzothiazol-2-yl)propionyl]-N-phenylglycine]: in data set [1] (setting [4]), the “Sorbitol Accumulation, Lens” value was found to be 20% and the “Sorbitol Accumulation, Nerve” value amounted to 46%. This compound also returned a half-inhibitory concentration (IC50) at Aldose reductase of 8.3 nM.

Regarding `O=C(O)Cc1ccccc1Cc1nc2c(F)c(F)cc(F)c2s1` [Example 20-ii), 2-[(4,5,7-trifluorobenzothiazol-2-yl)methyl]phenylacetic acid], in data set [1] (setting [3]), the “Sorbitol Accumulation, Lens” value amounted to 63% and the “Sorbitol Accumulation, Nerve” value turned out to be 15%. On Aldose reductase, this compound showed an IC50 of 19 nM.

Turning to `O=C(O)Cc1cccc(Cc2nc3c(F)c(F)ccc3s2)c1Cl` [Example 24-ii), 3-[(4,5-difluorobenzothiazol-2-yl)methyl]-2-chlorophenylacetic acid], in data set [2] (10 mg/kg oral once daily), the “Sorbitol Accumulation, Lens” value is 26% and the “Sorbitol Accumulation, Nerve” value is recorded as 11%.

On to `O=C(O)CN(C(=S)CCc1nc2c(F)c(F)cc(F)c2s1)c1ccccc1` [Example 32-ii), N-[3-(4,5,7-trifluorobenzothiazol-2-yl)-1-thioxopropionyl]-N-phenylglycine], for which the IC50 against Aldose reductase was found to be 8.4 nM.

Regarding `CN(C)c1cc(CC(=O)O)cc(Cc2nc3c(F)c(F)cc(F)c3s2)c1` [Example 31-ii), 3-[(4,5,7-trifluorobenzothiazol-2-yl)methyl]-5-dimethylaminophenylacetic acid], in data set [2] (3 mg/kg oral once daily), the “Sorbitol Accumulation, Lens” value is reported as 77% and the “Sorbitol Accumulation, Nerve” value is given as 1%. Also, the midpoint of inhibition at Aldose reductase, the IC50, lay at 6.7 nM.

Turning to `CN(CC(=O)O)C(=O)CCc1nc2c(F)c(F)cc(F)c2s1` [Example 3-iii), N-[3-(4,5,7-trifluorobenzothiazol-2-yl)propionyl]-N-methylglycine], 13 nM corresponded to half-maximal inhibition at Aldose reductase (IC50).

Take `O=C(O)Cc1cccc(Cc2nc3c(F)c(F)cc(F)c3s2)c1Cl` [Example 25-ii), 3-[(4,5,7-trifluorobenzothiazol-2-yl)methyl]-2-chlorophenylacetic acid]: in data set [2] (1 mg/kg oral once daily), the “Sorbitol Accumulation, Lens” value is 47% and the “Sorbitol Accumulation, Nerve” value worked out at 0%.

With `Cc1cc(CC(=O)O)cc(Cc2nc3c(F)c(F)ccc3s2)c1` [23-ii), 3-[(4,5-difluorobenzothiazol-2-yl)methyl]-5-methylphenylacetic acid], the mortality result in the data set with Normal ICR mice is listed as “No animal died”.
